Assay results: patent US20250170111A1, “PYRIDINE BASED CHALCONE ANALOGS AS THERAPEUTIC AGENTS AND USE THEREOF” (QATAR UNIVERSITY, priority 2023, published 2025)
Where two headings read alike, the source gives them in different places.

Experiments:
PC3 and DU145 [1] = experiment: Wound healing assay, PC3 and DU145; settings: both cell lines; significant from 5 μM in PC3
PC3 and DU145 [2] = experiment: Alamar Blue cell viability, AR-negative PCa cell lines (stated for both); settings: Homo sapiens, DU-145, read-out: IC50 against PC3 and DU145 cell lines
[3] = test system: primary human dental bulb cells (ND); experiment: Alamar Blue cell viability, normal primary dental cells; settings: 48 hours, Mean ± SEM
Bax, Bcl-2 = experiment: Western blot of apoptosis-related proteins in PC3 and DU145; settings: PC3 and DU145, 48 hours of treatment
DU145 [4] = experiment: Alamar Blue cell viability assay, DU145; settings: Homo sapiens, DU-145, 48 h, read-out: DU145 IC50
C4-2 and LNCaP = experiment: Morphological examination, AR-positive PCa cell lines; assay type: cell-based
Method: Cells were seeded in 6 wells plate at a density of 150,000-200,000 cells/well and were incubated overnight. […] Morphological changes were monitored using a DMi8 inverted microscope (Leica, Germany) and images were captured with a Leica MC170 HD camera.

PC3 = experiment: Alamar Blue cell viability assay, PC3; settings: for IC50: read-out: PC3 IC50, 48 hours, Mean ± SEM of three independent experiments
DU145 [5] = experiment: Cell cycle analysis (PI flow cytometry), DU145; assay type: cell-based, human; settings: DU145, 48 hours; not statistically significant (P>0.05)
Method: Cells were seeded in 100 mm Petri dishes at a density of 1.5 million cells/dish and incubated in RPMI supplemented with 10% FBS overnight at 37° C. Complete culture media was then removed, and cells were starved in serum serum-free for 16 hours to synchronize cells at the G0/G1 phase of the cell cycle. Subsequently, cells were treated with the compounds 13, 15, and 16 or docetaxel for 48 hours. After treatment, floating and adherent cells were collected, washed with ice-cold PBS and centrifuged at 500 g for 10 minutes at 4° C. Next, cells were fixed with ice-cold 70% ethanol added drop wisely while vertexing and stored at −20° C. for at least 24 hours. On the day of analysis, cells were pelleted (centrifuged at 800 g for 10 minutes at 4° C.), washed twice with ice-cold PBS and counted. Around one million cells of each sample were resuspended in 500 μl of FxCycle PI/RNase Staining Solution® (Thermo Fisher Scientific, USA) supplemented with 200 μg/ml RNase and incubated for 50 minutes at 37° C. in a shaking water bath, protected from light. Following incubation, cells were immediately analyzed by BD FACSAria™ II Flow Cytometer, at least 50,000 events were acquired for each sample. The proportion of cells in each cell cycle phase: […]

PC3 and DU145 [6] = experiment: Soft agar colony formation assay, PC3 and DU145 (stated for both); assay type: cell-based, human; settings: 5 and 10 μM, 14 days, both cell lines
Method: Anchorage-independent growth, a characteristic of transformed cells that correlate with in vivo tumorigenic potential, was assessed by soft agar assay. First, a 2% noble agar (Sigma-Aldrich) stock solution was prepared in deionized and autoclaved water. […] After 14 days, the average number of colonies in each well was counted manually under the microscope and confirmed by ImageJ; only colonies with an area larger than […] were counted to avoid the inclusion of non-proliferating dead cells. Besides, the size of colonies in each treatment condition was measured by ImageJ from at least six random fields per well.

JNK1/2/3, ERK1/2, Akt = experiment: Western blot of JNK, ERK and AKT-related biomarkers in PC3; settings: PC3 cell line
MCF 10A [7] = experiment: Alamar Blue cell viability, normal breast epithelial cell line
[8] = test system: MDA-MB-231 and MDA-MB-436; experiment: Alamar Blue cell viability, TNBC cell lines (stated for both); assay type: cell-based; settings: Homo sapiens
Source text: (§1) Besides, the effect of these analogs was compared to docetaxel, a first-line chemotherapy, as a positive control.

MDA-231 and MDA-436 = experiment: Morphological examination, TNBC cell lines; assay type: cell-based, human; settings: 24 and 48 hours post treatment
Method: Cells were seeded in 6 wells plate at a density of 150,000-200,000 cells/well and were incubated overnight. Then, cells were treated with the synthesized compounds at 5-10 μM concentration for 48 hours. Morphological changes were monitored using a DMi8 inverted microscope (Leica, Germany) and images were captured with a Leica MC170 HD camera.

MDA-MB-436 = experiment: Alamar Blue cell viability assay, MDA-MB-436; assay type: cell-based; settings: Homo sapiens, Mean ± SEM, read-out: IC50 against MDA-MB-436
Source text: as §1

MDA-MB-231 [9] = experiment: Wound healing assay, MDA-MB-231; assay type: cell-based, human
MDA-MB-231 [10] = experiment: Alamar Blue cell viability assay, MDA-MB-231; assay type: cell-based; settings: Homo sapiens, Mean ± SEM, read-out: IC50 against MDA-MB-231
Source text: as §1

[11] = test system: MDA-MB-231 and MDA-MB-436; experiment: Soft agar colony formation assay, TNBC cell lines; assay type: cell-based, human; settings: 28 days
MCF 10A [12] = settings: selectivity index
PC3 and DU145 [13] = experiment: Cell cycle analysis (PI flow cytometry), PC3 and DU145; assay type: cell-based, human; settings: 48 hours
Method: The compounds' effect on cell cycle distribution of PC3 and DU145 was assessed by flow cytometry using propidium iodide (PI). Cells were seeded in 100 mm Petri dishes at a density of 1.5 million cells/dish and incubated in RPMI supplemented with 10% FBS overnight at 37° C. Complete culture media was then removed, and cells were starved in serum serum-free for 16 hours to synchronize cells at the G0/G1 phase of the cell cycle. Subsequently, cells were treated with the compounds 13, 15, and 16 or docetaxel for 48 hours. After treatment, floating and adherent cells were collected, washed with ice-cold PBS and centrifuged at 500 g for 10 minutes at 4° C. Next, cells were fixed with ice-cold 70% ethanol added drop wisely while vertexing and stored at −20° C. for at least 24 hours. On the day of analysis, cells were pelleted (centrifuged at 800 g for 10 minutes at 4° C.), washed twice with ice-cold PBS and counted. […] Following incubation, cells were immediately analyzed by BD FACSAria™ II Flow Cytometer, at least 50,000 events were acquired for each sample. The proportion of cells in each cell cycle phase: G1, S and G2-M was determined using FlowJo software based on cells' DNA content as represented by histograms of PI signal intensity.

[14] = range over both TNBC cell lines, read-out: IC50 against MDA-MB-231 and MDA-MB-436 cell lines

| IC50 (MDA-MB-436; 24 hrs. post treatment) [µM] | IC50 (MDA-MB-436; 48 hrs. post treatment) [µM] | IC50 (MDA-MB-231 [10]; 24 hrs. post treatment) [µM] | IC50 (MDA-MB-231 [10]; 48 hrs. post treatment) [µM] | SMILES | wound closure (PC3 and DU145 [1]) | IC50 (PC3 and DU145 [2]) [µM] | ND LD50 [3] [µM] | Bax/Bcl-2 expression (Bax, Bcl-2) | IC50 (DU145 [4]) [µM] | IC50 (PC3) [µM] | effect on cell cycle distribution (DU145 [5]) | IC50 [8, 14] [µM] | effect on cell morphology (MDA-231 and MDA-436) | colony formation in soft agar (number and size) [11] | also measured |
| --- | --- | --- | --- | --- | --- | --- | --- | --- | --- | --- | --- | --- | --- | --- | --- |
| – | – | – | – | COc1cc2c(cc1OC)C(=O)/C(=C/c1ccc(-c3ccsc3)nc1)CC2 [Compound 13, (E)-6,7-dimethoxy-2-((6-(thiophen-3-yl)pyridin-3-yl)methylene)-3,4-dihydronaphthalen-1 (2H)-one] | dose-dependent reduction in wound closure | 4.32 to 6.47 | >50.0 | significant increase in Bax/Bcl-2 ratio | 5.63 ± 1.07 | 5.6 ± 0.38 | slight accumulation in G2/M and sub G1 phases | – | – | – | effect on cell morphology (C4-2 and LNCaP): lose their shape, shrink in size, and increased cell death; colony formation in soft agar (number and size) (PC3 and DU145 [6]): significant reduction in both the total number of colonies and average colony size |
| – | – | – | – | COc1ccc2c(c1)C(=O)/C(=C/c1cccc(-c3ccsc3)n1)CC2 [Compound 15, (E)-7-methoxy-2-((6-(thiophen-3-yl)pyridin-2-yl)methylene)-3,4-dihydronaphthalen-1 (2H)-one] | dose-dependent reduction in wound closure | 4.32 to 6.47 | >50.0 | significant increase in Bax/Bcl-2 ratio | 6.47 ± 0.57 | 6.6 ± 0.49 | slight accumulation in G2/M and sub G1 phases | – | – | – | expression of JNK1/2/3, ERK1/2, Akt and phosphorylated forms (JNK1/2/3, ERK1/2, Akt): reduced the expression of JNK1/2/3, p-ERK1/2, Akt and p-Akt |
| – | – | – | – | CS(=O)(=O)c1ccc(C(=O)/C=C/c2cccc(-c3ccsc3)n2)cc1 [Compound 23, (E)-1-(4-(methylsulfonyl)phenyl)-3-(6-(thiophen-3-yl)pyridin-2-yl) prop-2-en-1-one] | – | – | – | – | – | – | – | – | – | significant reduction in both the total number of colonies and average colony size | – |
| 2.4 ± 0.2 | 0.87 | 3.5 ± 1.47 | 2.1 | O=C(/C=C/c1cccc(-c2ccsc2)n1)c1ccccc1C(F)(F)F [Compound 25, (E)-3-(6-(thiophen-3-yl)pyridin-2-yl)-1-(2-(trifluoromethyl)phenyl) prop-2-en-1-one] | – | – | – | – | – | – | – | 0.87 to 3.2 | lose their shape, shrink in size, form apoptotic bodies, and increased cell death | – | SI of MCF 10A/MDA-MB231 (MCF 10A [12]): 1.8; SI of MCF 10A/MDA-MB436 (MCF 10A [12]): 3.9; selectivity versus normal cells (MCF10a) (MCF 10A [7]; MDA-231 and MDA-436 vs MCF10a): greater selectivity towards cancerous cell lines; Effect on non-tumorigenic epithelial cell line MCF 10A (MCF 10A [7]; after 48 hrs.): 3.44 ± 0.4 µM; IC50 ([8]; range, unit inferred, read-out: IC50 (TNBC cell lines)): 0.87 to 2.1 µM; cell migration of MDA-MB-231 (wound healing) (MDA-MB-231 [9]; dose-dependent): significantly reduced cell migration |
| 11.9 ± 2.7 | 9.8 ± 2 | 11 ± 1.7 | 6.43 ± 0.6 | CC(=O)O[C@@]12CO[C@@H]1C[C@H](O)[C@@]1(C)C(=O)[C@H](O)C3=C(C)[C@@H](OC(=O)[C@H](O)[C@@H](NC(=O)OC(C)(C)C)c4ccccc4)C[C@@](O)([C@@H](OC(=O)c4ccccc4)[C@H]21)C3(C)C [docetaxel, reference compound] | – | – | – | – | – | – | – | – | – | – | increase of G2/M phase as compared to control (PC3 and DU145 [13]): 1.9-2.6 folds |

| SMILES | IC50 (MDA-MB-436; 24 hrs. post treatment) [µM] | IC50 (MDA-MB-436; 48 hrs. post treatment) [µM] | IC50 (MDA-MB-231 [10]; 24 hrs. post treatment) [µM] | IC50 (MDA-MB-231 [10]; 48 hrs. post treatment) [µM] | wound closure (PC3 and DU145 [1]) | IC50 (PC3 and DU145 [2]) [µM] | ND LD50 [3] [µM] | Bax/Bcl-2 expression (Bax, Bcl-2) | IC50 (DU145 [4]) [µM] | IC50 (PC3) [µM] | effect on cell cycle distribution (DU145 [5]) | IC50 [8, 14] [µM] | effect on cell morphology (MDA-231 and MDA-436) | colony formation in soft agar (number and size) [11] | also measured |
| --- | --- | --- | --- | --- | --- | --- | --- | --- | --- | --- | --- | --- | --- | --- | --- |
| COc1ccccc1C(=O)/C=C/c1cccc(-c2ccsc2)n1 [Compound 17, (E)-1-(2-methoxyphenyl)-3-(6-(thiophen-3-yl)pyridin-2-yl) prop-2-en-1-one] | 3.2 ± 0.2 | 1.6 | 3.6 ± 0.5 | 3.2 | – | – | – | – | – | – | – | 0.87 to 3.2 | lose their shape, shrink in size, form apoptotic bodies, and increased cell death | significant reduction in both the total number of colonies and average colony size | selectivity versus normal cells (MCF10a) (MCF 10A [7]): greater selectivity towards cancerous cell lines; cell migration of MDA-MB-231 (wound healing) (MDA-MB-231 [9]): significantly reduced cell migration; reduction in cell viability of PC3 (PC3; 2.5 μM): 84.7% |
